Patent US9783532B2, “Molecules having certain pesticidal utilities, and intermediates, compositions, and processes related thereto” (Dow AgroSciences LLC, priority 2013, dated 2017)
Where two headings read alike, the source gives them in different places.

How the values were obtained:
[1] = test system: Beet Armyworm (Spodoptera exigua) ("BAW"); assay: Bioassay on beet armyworm (BAW), 128-well diet tray assay; format: in vivo; settings: for mortality at 50 µg/cm2: 168 h, 50 μg/cm^2 on artificial diet, second instar BAW larvae, 25° C., five to seven days, average of eight wells, read-out: BAW % Control (or Mortality) rating; for pest or weed control at 50 µg/cm2: activity rating class, read-out: BAW (Biological Results, Insect species)
Procedure: (§1) Certain molecules disclosed in this document were tested against BAW and CEW using procedures described in the following examples. In the reporting of the results, the “BAW & CL Rating Table” was used (See Table Section). BIOASSAYS ON BAW
Bioassays on BAW were conducted using a 128-well diet tray assay. one to five second instar BAW larvae were placed in each well (3 mL) of the diet tray that had been previously filled with 1 mL of artificial diet to which 50 μg/cm^2 of the test compound (dissolved in 50 μL of 90:10 acetone-water mixture) had been applied (to each of eight wells) and then allowed to dry. Trays were covered with a clear self-adhesive cover and held at 25° C., 14:10 light-dark for five to seven days. Percent mortality was recorded for the larvae in each well; activity in the eight wells was then averaged. The results are indicated in the table entitled “Table ABC: Biological Results” (See Table Section).

[2] = test system: Cabbage Looper (Trichoplusia ni) ("CL"); assay: Bioassay on cabbage looper (CL), 128-well diet tray assay; format: in vivo; settings: for mortality at 50 µg/cm2: 168 h, 50 μg/cm^2 on artificial diet, second instar CL larvae, 25° C., five to seven days, average of eight wells, read-out: CL % Control (or Mortality) rating; for pest or weed control at 50 µg/cm2: activity rating class, read-out: CL (Biological Results, Insect species)
Procedure: as §1
Bioassays on CL were conducted using a 128-well diet tray assay. one to five second instar CL larvae were placed in each well (3 mL) of the diet tray that had been previously filled with 1 mL of artificial diet to which 50 μg/cm^2 of the test compound (dissolved in 50 μL of 90:10 acetone-water mixture) had been applied (to each of eight wells) and then allowed to dry. Trays were covered with a clear self-adhesive cover and held at 25° C., 14:10 light-dark for five to seven days. Percent mortality was recorded for the larvae in each well; activity in the eight wells was then averaged. The results are indicated in the table entitled “Table ABC: Biological Results” (See Table Section).

Row | Compound | mortality at 50 µg/cm2 [1] | mortality at 50 µg/cm2 [2] | pest or weed control at 50 µg/cm2 ([1]; Table ABC (PC)) | pest or weed control at 50 µg/cm2 ([2]; Table ABC (PC)) | pest or weed control at 50 µg/cm2 ([1]; Table ABC (FB)) | pest or weed control at 50 µg/cm2 ([2]; Table ABC (FB))
1 | Cc1ccccc1N1C(=O)CS/C1=N\C(=O)NCCCc1ccc(-c2ncn(-c3ccc(OC(F)(F)F)cc3)n2)cc1 [P92, (Z)-1-(4-oxo-3-(o-tolyl)thiazolidin-2-ylidene)-3-(3-(4-(1-(4-(trifluoromethoxy)phenyl)-1H-1,2,4-triazol-3-yl)phenyl)propyl)urea] | 50 to 100% | 50 to 100% |  |  |  | 
2 | CCc1ccc(C)cc1NC(=S)NC(=O)NCc1ccc(-c2ncn(-c3ccc(OC(F)(F)F)cc3)n2)cc1 [PC7] |  |  | 50 to 100% | 50 to 100% |  | 
3 | Cc1ccc(C(C)C)c(N2C(=O)CS/C2=N\C(=O)NCCCCc2cccc(-c3ncn(-c4ccc(OC(F)(F)F)cc4)n3)c2)c1 [P176, (Z)-1-(3-(2-isopropyl-5-methylphenyl)-4-oxothiazolidin-2-ylidene)-3-(4-(3-(1-(4-(trifluoromethoxy)phenyl)-1H-1,2,4-triazol-3-yl)phenyl)butyl)urea] | 50 to 100% | 50 to 100% |  |  |  | 
4 | CC(C)c1ccccc1NC(=S)NC(=O)NCCCc1ccc(-c2ncn(-c3ccc(OC(F)(F)F)cc3)n2)cc1 [PC94, 1-[(2-isopropylphenyl)carbamothioyl]-3-[3-[4-[1-[4-(trifluoromethoxy)phenyl]-1H-1,2,4-triazol-3-yl]phenyl]propyl]urea] |  |  | 50 to 100% | 50 to 100% |  | 
5 | Cc1ccc(N2C(=O)CS/C2=N\C(=O)NCCCc2ccc(-c3ncn(-c4ccc(OC(F)(F)F)cc4)n3)cc2)c(C(C)C)c1 [P102, (Z)-1-(3-(2-isopropyl-4-methylphenyl)-4-oxothiazolidin-2-ylidene)-3-(3-(4-(1-(4-(trifluoromethoxy)phenyl)-1H-1,2,4-triazol-3-yl)phenyl)propyl)urea] | 50 to 100% | 50 to 100% |  |  |  | 
6 | CC(C)c1cc(F)ccc1N1C(=O)CS/C1=N\C(=O)NCc1ccc(-c2ncn(-c3ccc(OC(F)(F)F)cc3)n2)cc1 [P3, P1172, (Z)-1-(3-(4-fluoro-2-isopropylphenyl)-4-oxothiazolidin-2-ylidene)-3-(4-(1-(4-(trifluoromethoxy)phenyl)-1H-1,2,4-triazol-3-yl)benzyl)urea] | 50 to 100% | 50 to 100% |  |  |  | 
7 | Cc1ccc(NC(=S)NC(=O)NCCCCc2ccc(-c3ncn(-c4ccc(OC(F)(F)F)cc4)n3)cc2)c(C(C)C)c1 [PC154, 1-[(2-isopropyl-4-methyl-phenyl)carbamothioyl]-3-[4-[4-[1-[4-(trifluoromethoxy)phenyl]-1H-1,2,4-triazol-3-yl]phenyl]butyl]urea] |  |  | 50 to 100% | 50 to 100% |  | 
8 | CC(C)c1cc(F)ccc1N1C(=O)CS/C1=N\C(=O)NCCCCc1cccc(-c2ncn(-c3ccc(OC(F)(F)F)cc3)n2)c1 [P181] | 50 to 100% | 50 to 100% |  |  |  | 
9 | CCS/C(=N\C(=O)NCCc1ccc(-c2ncn(-c3ccc(OC(F)(F)F)cc3)n2)cc1)Nc1cc(C)ccc1C(C)C [FB66, (Z)-ethyl N-(2-isopropyl-5-methylphenyl)-N′-((4-(1-(4-(trifluoromethoxy)phenyl)-1H-1,2,4-triazol-3-yl)phenethyl)carbamoyl)carbamimidothioate] |  |  |  |  | 50 to 100% | 50 to 100%
10 | CCCc1ccc(C)cc1N1C(=O)CS/C1=N\C(=O)NCc1ccc(-c2ncn(-c3ccc(OC(F)(F)F)cc3)n2)cc1 [P8, P852, (Z)-1-(3-(5-methyl-2-propylphenyl)-4-oxothiazolidin-2-ylidene)-3-(4-(1-(4-(trifluoromethoxy)phenyl)-1H-1,2,4-triazol-3-yl)benzyl)urea] | 50 to 100% | 50 to 100% |  |  |  | 
11 | CC(C)c1ccccc1N1C(=O)CS/C1=N\C(=O)NCc1ccc(-c2ncn(-c3ccc(OC(F)(F)F)cc3)n2)cc1 [F17, (Z)-1-(3-(2-isopropylphenyl)-4-oxothiazolidin-2-ylidene)-3-(4-(1-(4-(trifluoromethoxy)phenyl)-1H-1,2,4-triazol-3-yl)benzyl)urea] | 50 to 100% | 50 to 100% |  |  |  | 
12 | Cc1ccccc1NC(=S)NC(=O)NCCc1cccc(-c2ncn(-c3ccc(OC(F)(F)F)cc3)n2)c1 [PC74, 1-(o-tolylcarbamothioyl)-3-[2-[3-[1-[4-(trifluoromethoxy)phenyl]-1H-1,2,4-triazol-3-yl]phenyl]ethyl]urea] |  |  | 50 to 100% | 50 to 100% |  | 
13 | Cc1ccccc1NC(=S)NC(=O)NCc1cccc(-c2ncn(-c3ccc(OC(F)(F)F)cc3)n2)c1 [FB18, 1-(o-tolylcarbamothioyl)-3-[[3-[1-[4-(trifluoromethoxy)phenyl]-1H-1,2,4-triazol-3-yl]phenyl]methyl]urea] |  |  |  |  | 50 to 100% | 50 to 100%
14 | CCc1cccc(C)c1NC(=S)NC(=O)NCc1cccc(-c2ncn(-c3ccc(OC(F)(F)F)cc3)n2)c1 [FB21, 1-[(2-ethyl-6-methyl-phenyl)carbamothioyl]-3-[[3-[1-[4-(trifluoromethoxy)phenyl]-1H-1,2,4-triazol-3-yl]phenyl]methyl]urea] |  |  |  |  | 50 to 100% | 50 to 100%
15 | Cc1ccc(NC(=S)NC(=O)NCc2ccc(-c3ncn(-c4ccc(OC(F)(F)F)cc4)n3)cc2)c(C(C)C)c1 [PC5, 1-[(2-isopropyl-4-methyl-phenyl)carbamothioyl]-3-[[4-[1-[4-(trifluoromethoxy)phenyl]-1H-1,2,4-triazol-3-yl]phenyl]methyl]urea] |  |  | 50 to 100% | 50 to 100% |  | 
16 | Cc1ccc(NC(=S)NC(=O)NCc2ccc(-c3ncn(-c4ccc(C(F)(F)F)cc4)n3)cc2)c(C(C)C)c1 [PC15, 1-[(2-isopropyl-4-methyl-phenyl)carbamothioyl]-3-[[4-[1-[4-(trifluoromethyl)phenyl]-1,2,4-triazol-3-yl]phenyl]methyl]urea] |  |  | 50 to 100% | 50 to 100% |  | 
17 | COc1ccc(C(C)C)c(N2C(=O)CS/C2=N\C(=O)NCCc2ccc(-c3ncn(-c4ccc(OC(F)(F)F)cc4)n3)cc2F)c1 [FB9, (Z)-1-(2-fluoro-4-(1-(4-(trifluoromethoxy)phenyl)-1H-1,2,4-triazol-3-yl)phenethyl)-3-(3-(2-isopropyl-5-methoxyphenyl)-4-oxothiazolidin-2-ylidene)urea] |  |  |  |  | 50 to 100% | 50 to 100%
18 | Cc1ccc(NC(=S)NC(=O)NCc2cccc(-c3ncn(-c4ccc(OC(F)(F)F)cc4)n3)c2)c(C(C)C)c1 [FB23, 1-[(2-isopropyl-4-methyl-phenyl)carbamothioyl]-3-[[3-[1-[4-(trifluoromethoxy)phenyl]-1H-1,2,4-triazol-3-yl]phenyl]methyl]urea] |  |  |  |  | 50 to 100% | 50 to 100%
19 | Cc1ccc(C(C)C)c(NC(=S)NC(=O)NCCCCc2cccc(-c3ncn(-c4ccc(OC(F)(F)F)cc4)n3)c2)c1 [PC176, 1-[(2-isopropyl-5-methyl-phenyl)carbamothioyl]-3-[4-[3-[1-[4-(trifluoromethoxy)phenyl]-1H-1,2,4-triazol-3-yl]phenyl]butyl]urea] |  |  | 0 to 50% | 50 to 100% |  | 
20 | COc1ccc(C(C)C)c(N2C(=O)CS/C2=N\C(=O)NCCc2ccc(-c3ncn(-c4ccc(OC(F)(F)F)cc4)n3)cc2C)c1 [FB4, (Z)-1-(3-(2-isopropyl-5-methoxyphenyl)-4-oxothiazolidin-2-ylidene)-3-(2-methyl-4-(1-(4-(trifluoromethoxy)phenyl)-1H-1,2,4-triazol-3-yl)phenethyl)urea] |  |  |  |  | 50 to 100% | 50 to 100%
21 | CCn1s/c(=N\C(=O)NCCc2ccc(-c3ncn(-c4ccc(OC(F)(F)F)cc4)n3)cc2)n(-c2cc(F)ccc2C(C)C)c1=O [FB12, (Z)-1-(2-ethyl-4-(5-fluoro-2-isopropylphenyl)-3-oxo-1,2,4-thiadiazolidin-5-ylidene)-3-(4-(1-(4-(trifluoromethoxy)phenyl)-1H-1,2,4-triazol-3-yl)phenethyl)urea] |  |  |  |  | 50 to 100% | 50 to 100%
22 | Cc1ccc(C(C)C)c(N2C(=O)C3(CC3)S/C2=N\C(=O)NCCc2ccc(-c3ncn(-c4ccc(OC(F)(F)F)cc4)n3)cc2)c1 [FB69, (Z)-1-(6-(2-isopropyl-5-methylphenyl)-7-oxo-4-thia-6-azaspiro[2.4]heptan-5-ylidene)-3-(4-(1-(4-(trifluoromethoxy)phenyl)-1H-1,2,4-triazol-3-yl)phenethyl)urea] |  |  |  |  | 50 to 100% | 50 to 100%
23 | CCc1cccc(C)c1NC(=S)NC(=O)NCCCCc1cccc(-c2ncn(-c3ccc(OC(F)(F)F)cc3)n2)c1 [PC179, 1-[(2-ethyl-6-methyl-phenyl)carbamothioyl]-3-[4-[3-[1-[4-(trifluoromethoxy)phenyl]-1H-1,2,4-triazol-3-yl]phenyl]butyl]urea] |  |  | 0 to 50% | 50 to 100% |  | 
